In paper PMC3003687, “α-Galactosylceramide Analogs with Weak Agonist Activity for Human iNKT Cells Define New Candidate Anti-Inflammatory Agents” (PLoS ONE, 2010):

How the values were obtained:
human iNKT cell clones = assay: Cytokine ELISA of human iNKT cell clones stimulated with glycolipid-pulsed CD1d-transfected HeLa cells; assay type: cell-based; settings: for dose inducing the lowest activation state (IL-13 and GM-CSF secretion): CD1d-transfected Hela cells and dendritic cells as APCs; for iNKT cell clone cytokine response / agonist activity: dose range, IFNγ, IL-4, IL-13, clones HDD3, HDD11, HDE3, HDA7
Procedure: Capture ELISA assays were used for measurement of cytokine responses of human iNKT cells to αGalCer analogs. One day prior to the experiment, CD1d transfected HeLa cells were plated at 25×10^3 cells/well in 100 µL of medium in flat-bottom 96 well plates. Glycolipids were then added in 100 µL of medium to give final concentrations ranging from 0.05 to 10^4 nM. The APCs were incubated for approximately 18 hours with the glycolipids and then irradiated (10,000 Rad) and washed twice with PBS prior to addition of 25×10^3 iNKT cells well in 300 µL. Supernatants were harvested after 24 hours of co-culture and stored frozen at -20°C. After thawing, aliquots of the supernatants were assayed for specific cytokines by ELISA using capture and biotin-labeled detection antibody pairs specific for GM-CSF, IL-2, IL-4, IL-12p70 and IL-13 (all obtained from BD Biosciences), IFNγ (Thermo-Scientific) or IL-18 (MBL). Specific signals were developed using HRP- conjugated streptavidin (BD Biosciences) and Turbo TMB substrate (Thermo-Scientific). Supernatants were tested pure and/or diluted to give values within a quantitative linear standard curve generated with recombinant cytokines. Curves of dose-dependent cytokine responses and graphs were plotted using the Graphpad Prism Software. EC50 values were calculated using the function log (agonist) response with variable slope, and statistical analyses were carried out using the same software. To calculate concentration-dependent cytokine ratios, IL-4/IFNγ and IL-13/IFNγ ratios were calculated using cytokine values from which background levels (i.e. levels in cultures receiving DMSO vehicle alone) were subtracted. Ratios were calculated by dividing IL-4 or IL-13 concentrations in pg/mL by IFNγ concentration in ng/mL.

Human iNKT TCRs = Human iNKT TCRs (Homo sapiens, UniProt A0A075B6N4+A0A0B4J240+P15813); assay: Equilibrium binding of analog-loaded hCD1d tetramers to iNKT cell clones
Description: For flow cytometric analysis, 6B11 (Vα24Jα18 specific) and mAbs specific for human CD3, CD4, CD8α, CD19, CD40L (CD154), CD56, CD69, GM-CSF & IFNγ were obtained from BD Biosciences. IL-4 and IL-13 specific mAbs were from Biolegend. Vα24 (C15) and Vβ11 (C21) specific mAb were from Immunotech. For antibody blocking in culture assays, non-specific isotype matched control, IL-2, IFNγ, IL-12p70 and CD40L specific mAbs without preservatives were obtained from BD Biosciences and IL-18 specific mAb from Medical & Biological Laboratories (MBL, Nagoya, Japan). Phycoerythrin and allophycocyanin labeled human CD1d tetramers were prepared in our laboratory as previously described. Curves of tetramer equilibrium binding constants and graphs were plotted using the Graphpad Prism Software (Version 5). KD values were calculated using the function non-linear fit (hyperbola, one binding site).
To characterize in more detail the iNKT cell TCR recognition of αGalCer analogs presented by human CD1d, we generated soluble and fluorescent tetrameric hCD1d molecules loaded with each of the glycolipid analogs. […] This was similar to the previously reported failure of mouse CD1d tetramer loaded with lysosulfatide to bind detectably to murine non-invariant and sulfatide specific NKT cells, despite a clear reactivity to this lipid upon presentation by APCs; [40]. […] To quantitate their binding avidities to iNKT cell TCRs, we used titration of analog-loaded hCD1d tetramers to determine equilibrium dissociation constants (KD), which are inversely proportional to avidity (Figure 3A and 3B).
Figure 3 Characterization of human iNKT cell TCR interactions with analog-loaded tetramers. (A) iNKT cell clones were stained with titrated amounts of hCD1d tetramers loaded with the indicated glycolipids (abbreviations as in legend to Figure 1), and the measured MFI values are plotted for selected glycolipids. (B) The equilibrium dissociation constants (KD, inversely proportional to TCR avidity) were determined as the concentrations of tetramers required to yield 50% of maximal binding. Data shown were obtained using the CD4^+ iNKT cell clone HDD3, and similar results (not shown) were obtained with a second CD4^+ clone (HDD11) and a CD4^−8^− double negative iNKT cell clone (HDE3). (C) Analysis of iNKT cell clones labeled with 20 nM of hCD1d tetramers which were loaded with variable excesses of analog to constant hCD1d (25 to 1000 fold molar excess of glycolipid to hCD1d protein). The measured MFI values were normalized as the percent of the maximum staining intensity obtained with each analog loaded tetramer. Data presented were generated with HDD3 (CD4+) iNKT cell clone, and similar results (not shown) were obtained with HDE3 (DN) clone.

[1] = test system: iNKT cells in PBMCs from healthy donors; assay: Ex vivo staining of PBMCs from healthy donors with analog-loaded hCD1d tetramers; assay type: cell-based, human
Description: Our panel of clones might be limited to iNKT cells able to expand upon PHA stimulation and might be representative of a fraction only of the iNKT cell repertoire. […] The frequencies of iNKT cells measured using tetramers loaded with N-aromatic branched analogs were lower in some or all PBMCs tested. A lower detection might be explained by weaker efficiency of staining, since lower MFI values were also seen with iNKT cell clones stained with tetramers loaded with these glycolipids.
Figure 4 Ex vivo analysis of PBMC with CD1d tetramers loaded with αGalCer analogs. (A) Flow cytometric analyses were performed after labeling of PBMCs from healthy donors with hCD1d tetramers loaded with each of the indicated glycolipids. Representative dot plots generated with PBMCs from one normal donor, with the analog tested indicated at the top of each plot and the percentages of tetramer^+ CD3^+ cells indicated in the top right quadrants. The dot plots show events gating as live lymphocytes (PI negative and FSC/SSC gated lymphocytes). (B) Comparison of tetramer^+ cell frequencies in PBMC from three different donors. The frequencies of cells specifically stained with hCD1d tetramers loaded with the indicated glycolipids (or vehicle (Veh) only (i.e., DMSO)) are shown as the percentage of total iNKT cells (i.e., cells staining with mAb 6B11^+, specific for the invariant TCRα chain of iNKT cells). Similar results were obtained for three additional PBMC donors (not shown). TEXT PRINTED IN THE PICTURE: (A) Vehicle: 0.03 | (A) KRN7000: 0.56 | (A) C20:2: 0.52 | (A) C20:4: 0.58 | (A) Tol: 0.16 | (A) DFB: 0.56 | (A) BB: 0.29 | (A) AD: 0.49 DOUBTS OF THE COPYIST ABOUT THIS PICTURE: Panel A: the numbers in the upper right quadrants are printed without a measure or unit; only the axes (hCD1d tetramer / CD3) are printed

[2] = CD1d-transfected HeLa APC, 24 h co-culture, ELISA

avidity of human iNKT TCRs for analog in complex with hCD1d (Human iNKT TCRs) | EC50 (human iNKT cell clones; Homo sapiens, iNKT, HDD3 clone, IL-4 levels did not reach a plateau) | Structure (SMILES) | dose inducing the lowest activation state (IL-13 and GM-CSF secretion) (human iNKT cell clones) | iNKT cell clone cytokine response / agonist activity (human iNKT cell clones) | iNKT cell frequencies with loaded tetramers versus staining with Vα24Jα18 specific Ab 6B11 [1] | concentration at which IL-13 production was induced (human iNKT cell clones; [2]) | concentration reaching maximal IL-13 production (human iNKT cell clones; [2]) | higher concentration required for IFNγ to be induced and reach plateau, relative to IL-13 (human iNKT cell clones; [2]) | concentration saturating IL-4 production (human iNKT cell clones; CD1d-transfected HeLa APC, data not shown)
strong avidity | – | CCCCC/C=C\C/C=C\CCCCCCCCCC(=O)N[C@@H](CO[C@H]1O[C@H](CO)[C@H](O)[C@H](O)[C@H]1O)[C@H](O)[C@H](O)CCCCCCCCCCCCCC [C20:2] | < 1 nM | strong agonist activity | Comparable iNKT cell frequencies | – | – | – | –
strong avidity | > 10 µM | CCCCC/C=C\C/C=C\C/C=C\C/C=C\CCCC(=O)N[C@@H](CO[C@H]1O[C@H](CO)[C@H](O)[C@H](O)[C@H]1O)[C@H](O)[C@H](O)CCCCCCCCCCCCCC [C20:4] | – | substantially lower iNKT cell response | Comparable iNKT cell frequencies | – | – | – | –
strong avidity | – | CCCCCCCCCCCCCCCCCCCCCCCCCC(=O)N[C@@H](CO[C@H]1O[C@H](CO)[C@H](O)[C@H](O)[C@H]1O)[C@H](O)[C@H](O)CCCCCCCCCCCCCC [KRN7000, reference compound] | < 1 nM | strong agonist activity | Comparable iNKT cell frequencies | ≤ 0.1 nM | approximately 1 nM | approximately 1 log | very high KRN7000 concentrations in the µM range
